Source: PubChem BioAssay (NCI)
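Results reflect a 48-hour exposure of cells in 96-well plates to compound at five concentrations. TGI: concentration producing complete growth inhibition.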

Experiments:
Assay in all cases: NCI-60 cell line screen, 48 h
786-0 renal = test system: 786-0 renal
A498 renal = test system: A498 renal
ACHN renal = test system: ACHN renal
CAKI-1 renal = test system: CAKI-1 renal
CCRF-CEM leukemia = test system: CCRF-CEM leukemia
COLO 205 colon = test system: COLO 205 colon
DLD-1 colon = test system: DLD-1 colon
DMS 114 small cell lung = test system: DMS 114 small cell lung
DMS 273 small cell lung = test system: DMS 273 small cell lung
EKVX NSCLC = test system: EKVX NSCLC
HCC-2998 colon = test system: HCC-2998 colon
HCT-116 colon = test system: HCT-116 colon
HCT-15 colon = test system: HCT-15 colon
HL-60(TB) leukemia = test system: HL-60(TB) leukemia
HOP-18 NSCLC = test system: HOP-18 NSCLC
HOP-62 NSCLC = test system: HOP-62 NSCLC
HOP-92 NSCLC = test system: HOP-92 NSCLC
HT29 colon = test system: HT29 colon
IGROV1 ovarian = test system: IGROV1 ovarian
K-562 leukemia = test system: K-562 leukemia
KM12 colon = test system: KM12 colon
KM20L2 colon = test system: KM20L2 colon
LOX IMVI melanoma = test system: LOX IMVI melanoma
LXFL 529 NSCLC = test system: LXFL 529 NSCLC
M14 melanoma = test system: M14 melanoma
M19-MEL melanoma = test system: M19-MEL melanoma
MALME-3M melanoma = test system: MALME-3M melanoma
MOLT-4 leukemia = test system: MOLT-4 leukemia
NCI-H226 lung = test system: NCI-H226 lung
NCI-H23 lung = test system: NCI-H23 lung
NCI-H460 lung = test system: NCI-H460 lung
NCI-H522 lung = test system: NCI-H522 lung
OVCAR-3 ovarian = test system: OVCAR-3 ovarian
OVCAR-4 ovarian = test system: OVCAR-4 ovarian
OVCAR-5 ovarian = test system: OVCAR-5 ovarian
OVCAR-8 ovarian = test system: OVCAR-8 ovarian
RPMI-8226 leukemia = test system: RPMI-8226 leukemia
RXF 393 renal = test system: RXF 393 renal
SF-268 CNS = test system: SF-268 CNS
SF-295 CNS = test system: SF-295 CNS
SF-539 CNS = test system: SF-539 CNS
SK-MEL-2 melanoma = test system: SK-MEL-2 melanoma
SK-MEL-28 melanoma = test system: SK-MEL-28 melanoma
SK-OV-3 ovarian = test system: SK-OV-3 ovarian
SN12C renal = test system: SN12C renal
SNB-19 CNS = test system: SNB-19 CNS
SNB-75 CNS = test system: SNB-75 CNS
SNB-78 CNS = test system: SNB-78 CNS
TK-10 renal = test system: TK-10 renal
U251 CNS = test system: U251 CNS
UACC-257 melanoma = test system: UACC-257 melanoma
UACC-62 melanoma = test system: UACC-62 melanoma
UO-31 renal = test system: UO-31 renal
XF 498 CNS = test system: XF 498 CNS
A549 NSCLC = test system: A549 NSCLC
RXF-631 renal = test system: RXF-631 renal
SK-MEL-5 melanoma = test system: SK-MEL-5 melanoma
SR leukemia = test system: SR leukemia
SW-620 colon = test system: SW-620 colon

## Fc1cccc(C=NC23CC4CC(CC(C4)C2)C3)c1
786-0 renal
  TGI: > 100 µM
A498 renal
  TGI: > 100 µM
ACHN renal
  TGI: > 100 µM
CAKI-1 renal
  TGI: > 100 µM
CCRF-CEM leukemia
  TGI: > 100 µM
COLO 205 colon
  TGI: > 100 µM
DLD-1 colon
  TGI: > 100 µM
DMS 114 small cell lung
  TGI: > 100 µM
DMS 273 small cell lung
  TGI: > 100 µM
EKVX NSCLC
  TGI: > 100 µM
HCC-2998 colon
  TGI: > 100 µM
HCT-116 colon
  TGI: > 100 µM
HCT-15 colon
  TGI: > 100 µM
HL-60(TB) leukemia
  TGI: > 100 µM
HOP-18 NSCLC
  TGI: > 100 µM
HOP-62 NSCLC
  TGI: > 100 µM
HOP-92 NSCLC
  TGI: > 100 µM
HT29 colon
  TGI: > 100 µM
IGROV1 ovarian
  TGI: > 100 µM
K-562 leukemia
  TGI: > 100 µM
KM12 colon
  TGI: > 100 µM
KM20L2 colon
  TGI: > 100 µM
LOX IMVI melanoma
  TGI: > 100 µM
LXFL 529 NSCLC
  TGI: > 100 µM
M14 melanoma
  TGI: > 100 µM
M19-MEL melanoma
  TGI: > 100 µM
MALME-3M melanoma
  TGI: > 100 µM
MOLT-4 leukemia
  TGI: > 100 µM
NCI-H226 lung
  TGI: > 100 µM
NCI-H23 lung
  TGI: > 100 µM
NCI-H460 lung
  TGI: > 100 µM
NCI-H522 lung
  TGI: > 100 µM
OVCAR-3 ovarian
  TGI: > 100 µM
OVCAR-4 ovarian
  TGI: > 100 µM
OVCAR-5 ovarian
  TGI: > 100 µM
OVCAR-8 ovarian
  TGI: > 100 µM
RPMI-8226 leukemia
  TGI: > 100 µM
RXF 393 renal
  TGI: > 100 µM
SF-268 CNS
  TGI: > 100 µM
SF-295 CNS
  TGI: > 100 µM
SF-539 CNS
  TGI: > 100 µM
SK-MEL-2 melanoma
  TGI: > 100 µM
SK-MEL-28 melanoma
  TGI: > 100 µM
SK-OV-3 ovarian
  TGI: > 100 µM
SN12C renal
  TGI: > 100 µM
SNB-19 CNS
  TGI: > 100 µM
SNB-75 CNS
  TGI: > 100 µM
SNB-78 CNS
  TGI: > 100 µM
TK-10 renal
  TGI: > 100 µM
U251 CNS
  TGI: > 100 µM
UACC-257 melanoma
  TGI: > 100 µM
UACC-62 melanoma
  TGI: > 100 µM
UO-31 renal
  TGI: > 100 µM
XF 498 CNS
  TGI: > 100 µM

## CC(C)c1cccc(C(C)C)c1NC(=S)Nc1ccccc1
A498 renal
  TGI: > 100 µM
A549 NSCLC
  TGI: > 100 µM
ACHN renal
  TGI: > 100 µM
CCRF-CEM leukemia
  TGI: > 100 µM
COLO 205 colon
  TGI: > 100 µM
DLD-1 colon
  TGI: > 100 µM
DMS 114 small cell lung
  TGI: > 100 µM
DMS 273 small cell lung
  TGI: > 100 µM
EKVX NSCLC
  TGI: > 100 µM
HCC-2998 colon
  TGI: > 100 µM
HCT-116 colon
  TGI: > 100 µM
HCT-15 colon
  TGI: > 100 µM
HL-60(TB) leukemia
  TGI: 32.4 µM
HOP-18 NSCLC
  TGI: > 100 µM
HOP-62 NSCLC
  TGI: > 100 µM
HOP-92 NSCLC
  TGI: > 100 µM
HT29 colon
  TGI: > 100 µM
IGROV1 ovarian
  TGI: > 100 µM
K-562 leukemia
  TGI: > 100 µM
KM12 colon
  TGI: > 100 µM
KM20L2 colon
  TGI: > 100 µM
LOX IMVI melanoma
  TGI: > 100 µM
LXFL 529 NSCLC
  TGI: > 100 µM
M14 melanoma
  TGI: > 100 µM
M19-MEL melanoma
  TGI: > 100 µM
MALME-3M melanoma
  TGI: > 100 µM
MOLT-4 leukemia
  TGI: > 100 µM
NCI-H226 lung
  TGI: > 100 µM
NCI-H23 lung
  TGI: > 100 µM
NCI-H460 lung
  TGI: > 100 µM
OVCAR-3 ovarian
  TGI: > 100 µM
OVCAR-4 ovarian
  TGI: > 100 µM
OVCAR-5 ovarian
  TGI: > 100 µM
OVCAR-8 ovarian
  TGI: > 100 µM
RPMI-8226 leukemia
  TGI: > 100 µM
RXF 393 renal
  TGI: > 100 µM
RXF-631 renal
  TGI: > 100 µM
SF-268 CNS
  TGI: > 100 µM
SF-295 CNS
  TGI: > 100 µM
SF-539 CNS
  TGI: > 100 µM
SK-MEL-2 melanoma
  TGI: > 100 µM
SK-MEL-28 melanoma
  TGI: > 100 µM
SK-MEL-5 melanoma
  TGI: > 100 µM
SK-OV-3 ovarian
  TGI: > 100 µM
SN12C renal
  TGI: > 100 µM
SNB-19 CNS
  TGI: > 100 µM
SNB-75 CNS
  TGI: > 100 µM
SNB-78 CNS
  TGI: > 100 µM
SR leukemia
  TGI: > 100 µM
SW-620 colon
  TGI: > 100 µM
TK-10 renal
  TGI: > 100 µM
U251 CNS
  TGI: > 100 µM
UACC-257 melanoma
  TGI: > 100 µM
UACC-62 melanoma
  TGI: > 100 µM
UO-31 renal
  TGI: > 100 µM

## CCN(CC)CCSc1nc2c([N+](=O)[O-])cccc2[nH]1
A549 NSCLC
  TGI: > 100 µM
CAKI-1 renal
  TGI: > 100 µM
CCRF-CEM leukemia
  TGI: > 100 µM
COLO 205 colon
  TGI: > 100 µM
DMS 114 small cell lung
  TGI: > 100 µM
DMS 273 small cell lung
  TGI: > 100 µM
EKVX NSCLC
  TGI: > 100 µM
HCC-2998 colon
  TGI: > 100 µM
HCT-15 colon
  TGI: > 100 µM
HL-60(TB) leukemia
  TGI: > 100 µM
HOP-92 NSCLC
  TGI: > 100 µM
HT29 colon
  TGI: > 100 µM
IGROV1 ovarian
  TGI: > 100 µM
K-562 leukemia
  TGI: > 100 µM
KM12 colon
  TGI: > 100 µM
LOX IMVI melanoma
  TGI: > 100 µM
LXFL 529 NSCLC
  TGI: > 100 µM
M14 melanoma
  TGI: > 100 µM
M19-MEL melanoma
  TGI: > 100 µM
MOLT-4 leukemia
  TGI: > 100 µM
NCI-H226 lung
  TGI: > 100 µM
NCI-H23 lung
  TGI: > 100 µM
NCI-H522 lung
  TGI: > 100 µM
OVCAR-3 ovarian
  TGI: > 100 µM
OVCAR-4 ovarian
  TGI: > 100 µM
OVCAR-8 ovarian
  TGI: > 100 µM
RPMI-8226 leukemia
  TGI: > 100 µM
RXF 393 renal
  TGI: > 100 µM
RXF-631 renal
  TGI: > 100 µM
SF-539 CNS
  TGI: > 100 µM
SK-MEL-28 melanoma
  TGI: > 100 µM
SK-MEL-5 melanoma
  TGI: > 100 µM
SK-OV-3 ovarian
  TGI: > 100 µM
SN12C renal
  TGI: > 100 µM
SNB-75 CNS
  TGI: > 100 µM
SNB-78 CNS
  TGI: > 100 µM
SW-620 colon
  TGI: > 100 µM
TK-10 renal
  TGI: > 100 µM
UACC-257 melanoma
  TGI: > 100 µM
UACC-62 melanoma
  TGI: > 100 µM
XF 498 CNS
  TGI: > 100 µM

## CC(C)=CCC/C(C)=C/CC/C(C)=C/C(O)c1ccccc1 (configuration not stated)
A498 renal
  TGI: 34.2 µM
ACHN renal
  TGI: 31.2 µM
CAKI-1 renal
  TGI: > 10 µM
CCRF-CEM leukemia
  TGI: 52.4 µM
COLO 205 colon
  TGI: 35.6 µM
DLD-1 colon
  TGI: 34.4 µM
DMS 114 small cell lung
  TGI: 39.4 µM
EKVX NSCLC
  TGI: 34.3 µM
HCT-116 colon
  TGI: 32.2 µM
HCT-15 colon
  TGI: 32.8 µM
HL-60(TB) leukemia
  TGI: 43.8 µM
HOP-62 NSCLC
  TGI: 34.3 µM
HT29 colon
  TGI: 32.9 µM
IGROV1 ovarian
  TGI: 37.2 µM
K-562 leukemia
  TGI: > 100 µM
KM12 colon
  TGI: 51.8 µM
KM20L2 colon
  TGI: 36 µM
LOX IMVI melanoma
  TGI: 35.9 µM
LXFL 529 NSCLC
  TGI: 31.8 µM
M14 melanoma
  TGI: 32.7 µM
M19-MEL melanoma
  TGI: 34.6 µM
MALME-3M melanoma
  TGI: 34.5 µM
NCI-H226 lung
  TGI: 46.2 µM
NCI-H23 lung
  TGI: 55.8 µM
NCI-H460 lung
  TGI: 35.3 µM
NCI-H522 lung
  TGI: > 10 µM
OVCAR-3 ovarian
  TGI: 36.3 µM
OVCAR-4 ovarian
  TGI: > 10 µM
OVCAR-5 ovarian
  TGI: 32.5 µM
OVCAR-8 ovarian
  TGI: 40.6 µM
RPMI-8226 leukemia
  TGI: 49.5 µM
RXF-631 renal
  TGI: 34.1 µM
SF-268 CNS
  TGI: 35.3 µM
SF-295 CNS
  TGI: 33.8 µM
SK-MEL-2 melanoma
  TGI: 34.9 µM
SK-MEL-5 melanoma
  TGI: 30.2 µM
SK-OV-3 ovarian
  TGI: 36.5 µM
SN12C renal
  TGI: 33.9 µM
SNB-19 CNS
  TGI: 35.3 µM
SNB-78 CNS
  TGI: 68 µM
SR leukemia
  TGI: 44.1 µM
SW-620 colon
  TGI: 38.8 µM
TK-10 renal
  TGI: 88.4 µM
U251 CNS
  TGI: 33.5 µM
UACC-257 melanoma
  TGI: 35.6 µM
UACC-62 melanoma
  TGI: 30.9 µM
UO-31 renal
  TGI: 36.3 µM
